The source made the active and inactive calls. No cut-off for these calls is given here.
Assays:
[1] = Antifungal activity against Trichophyton rubrum isolate 1 measured after 48 hrs by broth dilution method; format: functional
[2] = Cytotoxicity against human HT-29 cells assessed as reduction in cell viability measured after 48 hrs by resazurin dye-based fluorometric analysis; format: functional; settings: Homo sapiens, HT-29, 48 h
Tubulin (Homo sapiens) [3] = molecular target: T1, Tubulin (Homo sapiens) (UniProt P68371+Q9H4B7+P0DPH7+P68366+Q13509+Q71U36+P04350+Q3ZCM7+P07437+P68363+Q9BQE3+Q6PEY2+Q13885+Q9BVA1+Q9BUF5); experiment: Induction of microtubule instability in human MCF7 cells assessed as mean shortening rate at IC25 for mitotic block measured after 20 hrs by immunofluorescence analysis; format: cell-based
HUVEC [4] = experiment: Induction of monolayer permeability in HUVEC measured up to 15 mins; format: functional, cell-based; settings: Homo sapiens
Rattus norvegicus [5] = experiment: Effect on blood flow in rat gut at 15 mg/kg, ip measured after 1 hr by [125I]iodoantipyrine based method relative to vehicle control; format: ADME, organism-based; settings: in vivo
Rattus norvegicus [6] = experiment: Effect on blood flow in rat heart at 15 mg/kg, ip measured after 1 hr by [125I]iodoantipyrine based method relative to vehicle control; format: ADME, organism-based; settings: in vivo
Rattus norvegicus [7] = experiment: Effect on blood flow in rat brain at 15 mg/kg, ip measured after 1 hr by [125I]iodoantipyrine based method relative to vehicle control; format: ADME, organism-based; settings: in vivo
[8] = Cytotoxicity against human HT-29 cells assessed as reduction in cell viability measured after 48 hrs by resazurin dye-based fluorometric analysis relative to control; format: functional
[9] = Antitumor activity against human HT-29 cells xenografted in nude mouse assessed as tumor growth inhibition at 7.5 mg/kg, ip administered every third day for 5 days relative to control; format: functional; settings: HT-29, ip, 120 h, read-out: TGI
[10] = molecular target: Mitogen-activated protein kinase 10 (Rattus norvegicus) (UniProt P49187); settings: 10 uM
Description: Inhibition of rat JNK3 at 10 uM in presence of ATP

[11] = Cytotoxicity against human PC3 cells assessed as reduction in cell viability measured after 48 hrs by resazurin dye-based fluorometric analysis; format: functional; settings: PC-3, 48 h
HUVEC [12] = experiment: Induction of apoptosis in HUVEC assessed as cell membrane blebbing; format: functional, cell-based; settings: Homo sapiens
MCF7 [13] = experiment: Potentiation of taxotere-induced antitumor activity against human MCF7 cells xenografted in nude mouse assessed as tumor growth inhibition at 7.5 mg/kg, ip qd for 4 days measured on day 7; format: functional, organism-based
Rattus norvegicus [14] = experiment: Effect on blood flow in rat kidney at 15 mg/kg, ip measured after 1 hr by [125I]iodoantipyrine based method relative to vehicle control; format: ADME, organism-based; settings: in vivo
[15] = Antitumor activity against human DU145 cells xenografted in nude mouse assessed as tumor growth inhibition at 7.5 mg/kg, iv administered every third day for 5 days measured on day 28 relative to control; format: functional; settings: DU-145, iv, read-out: TGI
[16] = Cytotoxicity against mouse B16F10 cells assessed as reduction in cell viability measured after 48 hrs by resazurin dye-based fluorometric analysis; format: functional; settings: B16-F10, 48 h
MCF7 [17] = experiment: Antimitotic activity in human MCF7 cells assessed as decrease in microtubule polymer formation measured after 20 hrs by immunofluorescence analysis relative to control; format: functional, cell-based
Tubulin (Homo sapiens) [18] = molecular target: T1, Tubulin (Homo sapiens); experiment: Time required for induction of microtubule dynamic instability in human MCF7 cells at IC50 for mitotic block measured after 20 hrs by immunofluorescence analysis; format: cell-based
Rattus norvegicus [19] = experiment: Increase in blood flow in rat skeletal muscle at 15 mg/kg, ip measured after 24 hrs by [125I]iodoantipyrine based method relative to vehicle control; format: ADME, organism-based; settings: in vivo
Mus musculus [20] = experiment: Antivascular activity against mouse N202 tumor spheroids expressing H2B-GFP allografted in mouse assessed as inhibition of tumor-induced central vasculature at 10 mg/kg, iv administered on day 13 as infusion for 5 mins measured on day 15 by fluorescence video microscopy; format: functional, organism-based
HeLa [21] = experiment: Effect on cell cycle progression in human HeLa cells assessed as increase in 4N cells at 100 nM; format: functional, cell-based
[22] = Toxicity in mouse allografted with mouse N202 tumor spheroids expressing H2B-GFP assessed as effect on tumor surrounding vasculature in the dorsal skin fold at 10 mg/kg, iv administered on day 12 as infusion for 5 mins measured on day 15; format: organism-based; settings: in vivo
Tubulin (Homo sapiens) [23] = molecular target: T1, Tubulin (Homo sapiens); experiment: Induction of microtubule depolymerization in HUVEC assessed as cell membrane blebbing at 2 uM measured after 30 mins; format: cell-based
[24] = test system: Trichophyton mentagrophytes; experiment: Fungicidal activity against Trichophyton mentagrophytes isolate 1 measured after 48 hrs by broth dilution method; format: functional; settings: isolate 1, 48 h
Tubulin (Bos taurus) [25] = molecular target: T2, Tubulin (Bos taurus) (UniProt Q6B856+Q862L2+Q862F3); settings: 1.25 to 5 uM
Tubulin (Bos taurus) [26] = molecular target: T2, Tubulin (Bos taurus); settings: 10 uM
Description: Inhibition of [3H]CLC binding to bovine brain tubulin at 10 uM measured after 120 mins in presence of GTP by scintillation counting method

Rattus norvegicus [27] = experiment: Reduction in blood flow in rat heart at 15 mg/kg, ip measured after 24 hrs by [125I]iodoantipyrine based method relative to vehicle control; format: ADME, organism-based; settings: in vivo
Mus musculus [28] = experiment: Antivascular activity against mouse N202 tumor spheroids expressing H2B-GFP allografted in mouse assessed as inhibition of tumor-induced central vasculature at 10 mg/kg, iv administered on day 12 as infusion for 5 mins measured on day 15 by fluorescence video microscopy; format: functional, organism-based
HUVEC [29] = experiment: Induction of apoptosis in HUVEC assessed as disruption of nuclei; format: functional, cell-based; settings: Homo sapiens
[30] = molecular target: RAF proto-oncogene serine/threonine-protein kinase (Homo sapiens) (UniProt P04049); settings: 10 uM
Description: Inhibition of human c-RAF at 10 uM in presence of ATP

Rattus norvegicus [31] = experiment: Effect on blood flow in rat muscle at 15 mg/kg, ip measured after 1 hr by [125I]iodoantipyrine based method relative to vehicle control; format: ADME, organism-based; settings: in vivo
Tubulin (Homo sapiens) [32] = molecular target: T1, Tubulin (Homo sapiens); experiment: Induction of microtubule dynamic instability in human MCF7 cells at IC25 for mitotic block measured after 20 hrs by immunofluorescence analysis; format: cell-based
[33] = Toxicity in mouse allografted with mouse N202 tumor spheroids expressing H2B-GFP assessed as effect on tumor surrounding vasculature in the dorsal skin fold at 10 mg/kg, iv administered on day 13 as infusion for 5 mins measured on day 15; format: organism-based; settings: in vivo
HeLa [34] = experiment: Effect on cell cycle progression in human HeLa cells assessed as reduction in 2N cells at 100 nM; format: functional, cell-based
Rattus norvegicus [35] = experiment: Reduction in blood flow in rat spleen at 15 mg/kg, ip measured after 24 hrs by [125I]iodoantipyrine based method relative to vehicle control; format: ADME, organism-based; settings: in vivo
Tubulin (Homo sapiens) [36] = molecular target: T1, Tubulin (Homo sapiens); experiment: Induction of microtubule instability in human MCF7 cells assessed as mean growth rate at IC25 for mitotic block measured after 20 hrs by immunofluorescence analysis; format: cell-based
[37] = Drug metabolism assessed as human hepatic cytochrome P450-mediated hydroxylated metabolite P3 and P5 formation; format: ADME
Tubulin (Homo sapiens) [38] = molecular target: T1, Tubulin (Homo sapiens); experiment: Induction of microtubule instability in human MCF7 cells assessed as time spent for attenuation at IC25 for mitotic block measured after 20 hrs by immunofluorescence analysis; format: cell-based
[39] = Antifungal activity against Trichophyton mentagrophytes isolate 2 measured after 48 hrs by broth dilution method; format: functional
Tubulin (Homo sapiens) [40] = molecular target: T1, Tubulin (Homo sapiens); experiment: Induction of microtubule depolymerization in human CCD-27Sk cells at 2 uM measured after 30 mins; format: cell-based

Sequence of RAF proto-oncogene serine/threonine-protein kinase (Homo sapiens) (P04049 whole entry): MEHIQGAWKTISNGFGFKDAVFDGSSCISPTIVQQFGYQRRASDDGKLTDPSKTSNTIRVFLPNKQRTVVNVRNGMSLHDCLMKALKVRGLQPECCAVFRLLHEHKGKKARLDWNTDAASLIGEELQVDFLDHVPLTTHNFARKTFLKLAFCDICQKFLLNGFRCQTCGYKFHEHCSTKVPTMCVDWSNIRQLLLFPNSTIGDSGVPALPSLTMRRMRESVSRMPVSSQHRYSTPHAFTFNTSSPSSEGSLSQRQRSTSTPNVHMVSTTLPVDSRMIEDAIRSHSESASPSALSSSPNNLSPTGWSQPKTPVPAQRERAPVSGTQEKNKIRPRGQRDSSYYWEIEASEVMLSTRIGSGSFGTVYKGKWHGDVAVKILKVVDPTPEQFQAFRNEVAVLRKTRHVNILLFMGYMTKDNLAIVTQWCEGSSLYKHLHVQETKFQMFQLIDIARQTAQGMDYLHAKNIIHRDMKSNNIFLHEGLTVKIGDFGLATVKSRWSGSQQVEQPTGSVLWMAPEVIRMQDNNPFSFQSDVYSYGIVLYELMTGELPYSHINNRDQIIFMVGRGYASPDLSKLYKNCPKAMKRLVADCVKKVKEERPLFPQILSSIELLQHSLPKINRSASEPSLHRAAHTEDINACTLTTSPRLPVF
Sequence of Mitogen-activated protein kinase 10 (Rattus norvegicus) (P49187 whole entry): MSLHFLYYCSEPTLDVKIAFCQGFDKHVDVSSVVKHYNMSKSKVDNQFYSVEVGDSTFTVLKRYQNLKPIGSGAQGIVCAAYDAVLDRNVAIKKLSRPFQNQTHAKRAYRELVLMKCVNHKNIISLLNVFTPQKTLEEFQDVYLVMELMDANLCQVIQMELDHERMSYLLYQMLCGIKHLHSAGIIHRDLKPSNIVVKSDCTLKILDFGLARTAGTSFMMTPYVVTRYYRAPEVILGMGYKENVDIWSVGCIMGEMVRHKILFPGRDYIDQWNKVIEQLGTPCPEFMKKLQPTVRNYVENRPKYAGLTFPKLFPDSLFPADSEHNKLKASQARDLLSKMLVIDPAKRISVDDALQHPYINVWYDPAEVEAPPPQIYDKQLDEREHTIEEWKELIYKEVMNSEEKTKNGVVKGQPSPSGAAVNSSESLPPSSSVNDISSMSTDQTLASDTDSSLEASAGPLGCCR

Question: With CC(C)(C)c1[nH]cnc1/C=c1\[nH]c(=O)/c(=C/c2ccccc2)[nH]c1=O [PLINABULIN] as the compound, how does the MIC [1] read?
Answer: The MIC was > 16 µg/mL.

Question: What about the EC50 [2] of the same compound?
Answer: Its EC50 is 9.8 to 48 nM.

Question: And the Activity (Tubulin (Homo sapiens) [3])?
Answer: The Activity was 31.9 um/min.

Question: And the Activity (HUVEC [4])?
Answer: Its Activity is “Dose-dependent effect”.

Question: And the Activity (Rattus norvegicus [5])?
Answer: Its Activity is “Non-Toxic”.

Question: And the Activity (Rattus norvegicus [6])?
Answer: The Activity was “Non-Toxic”.

Question: What about the Activity (Rattus norvegicus [7]) of the same compound?
Answer: The Activity was “Non-Toxic”.

Question: And the “inhibition (INH)” value [8]?
Answer: The value was 82.5 - 88%.

Question: What about the inhibition in vivo at 7.5 mg/kg [9] of the same compound?
Answer: Its inhibition in vivo at 7.5 mg/kg is 9%.

Question: What about the inhibition [10] of the same compound?
Answer: Its inhibition is > 50%.

Question: And the EC50 [11]?
Answer: The EC50 was 1 to 13.4 nM.

Question: And the Activity (HUVEC [12])?
Answer: Its Activity is “Active”.

Question: And the TGI (MCF7 [13])?
Answer: Its TGI is “Active”.

Question: And the Activity (Rattus norvegicus [14])?
Answer: Its Activity is “Non-Toxic”.

Question: And the inhibition in vivo at 7.5 mg/kg [15]?
Answer: The inhibition in vivo at 7.5 mg/kg was 92.5%.

Question: And the EC50 [16]?
Answer: Its EC50 is 37.1 nM.

Question: What about the Activity (MCF7 [17]) of the same compound?
Answer: Its Activity is “Dose-dependent effect”.

Question: And the TIME (Tubulin (Homo sapiens) [18])?
Answer: Its TIME is 0.552 h.

Question: And the Activity (Rattus norvegicus [19])?
Answer: The Activity was “Toxic”.

Question: What about the inhibition (Mus musculus [20]) of the same compound?
Answer: Its inhibition is “Active”.

Question: And the Activity (HeLa [21])?
Answer: The Activity was “Active”.

Question: And the Activity [22]?
Answer: Its Activity is “Non-Toxic”.

Question: What about the Activity (Tubulin (Homo sapiens) [23]) of the same compound?
Answer: The Activity was “Active”.

Question: What about the MFC [24] of the same compound?
Answer: Its MFC is > 16 µg/mL.

Question: What about the inhibition (Tubulin (Bos taurus) [25]) of the same compound?
Answer: The inhibition was “Active”.

Question: What about the inhibition (Tubulin (Bos taurus) [26]) of the same compound?
Answer: Its inhibition is “Active”.

Question: What about the Activity (Rattus norvegicus [27]) of the same compound?
Answer: The Activity was “Toxic”.

Question: And the inhibition (Mus musculus [28])?
Answer: The inhibition was “Active”.

Question: What about the Activity (HUVEC [29]) of the same compound?
Answer: Its Activity is “Active”.

Question: And the inhibition [30]?
Answer: Its inhibition is > 50%.

Question: And the Activity (Rattus norvegicus [31])?
Answer: Its Activity is “Non-Toxic”.

Question: What about the Activity (Tubulin (Homo sapiens) [32]) of the same compound?
Answer: The Activity was 10.1 um/min.

Question: What about the Activity [33] of the same compound?
Answer: Its Activity is “Non-Toxic”.

Question: And the Activity (HeLa [34])?
Answer: The Activity was “Active”.

Question: And the Activity (Rattus norvegicus [35])?
Answer: The Activity was “Toxic”.

Question: What about the Activity (Tubulin (Homo sapiens) [36]) of the same compound?
Answer: The Activity was 11.9 um/min.

Question: And the Drug metabolism [37]?
Answer: Its Drug metabolism is “Metabolite_Detected”.

Question: What about the Activity (Tubulin (Homo sapiens) [38]) of the same compound?
Answer: Its Activity is 49.8%.

Question: What about the TIME (Tubulin (Homo sapiens) [38]) of the same compound?
Answer: The TIME was 0.0122 h.

Question: What about the MIC [39] of the same compound?
Answer: Its MIC is > 16 µg/mL.

Question: What about the Activity (Tubulin (Homo sapiens) [40]) of the same compound?
Answer: Its Activity is “Active”.
